According to ChEMBL document CHEMBL3301451, “MMV Malaria Box gametocyte functional viability assay screening”:

Assays:
Assay type in all cases: functional
Set-up in all cases: concentration or dose not given beside the values
Plasmodium falciparum [1] = assay: MMV: P. falciparum NF54 functionally mature Stage V gametocytes were incubated for 24 hr in the presence of the test compounds. Gamete formation was then triggered by addition of 2uM xantheurenic acid and temperature decrease to ~20C. Female gamete formation was recorded 24 hr later by automated microscopy detection of surface labelling of female gametes with a Cy3-conjugated antibody reactive to Pfs25. All compounds were tested in 4 independent experiments and data presented here is the mean.; conditions: NF54, 24 h
Plasmodium falciparum [2] = assay: MMV: P. falciparum NF54 functionally mature Stage V gametocytes were incubated for 24 hr in the presence of the test compounds. Gamete formation was then triggered by addition of 2uM xantheurenic acid and temperature decrease to ~20C. Male gamete exflagellation was recorded and analysed by automated microscopy after 20 min. All compounds were tested in 4 independent experiments and data presented here is the mean.
Plasmodium berghei = assay: MMV: P. berghei-infected blood was withdrawn from mice by cardiac pucture before being immediately added to ookinete culture medium containing test compounds. 26 hr later, GFP-positive ookinetes were identified and counted by automated microscopy. All compounds were tested in 4 independent experiments and data presented here is the mean.

Cc1ccc(CSCc2ccc(C(=O)NC3CC3)o2)cc1
inhibition (Plasmodium falciparum [1]): -29.1%
inhibition (Plasmodium falciparum [2]): 34.4%
inhibition (Plasmodium berghei): 11.64%

COc1ccc(CCn2c(=N)c(C(=O)NCc3cccnc3)cc3c(=O)n4cccc(C)c4nc32)cc1
inhibition (Plasmodium falciparum [1]): -20.7%
inhibition (Plasmodium falciparum [2]): -7.17%
inhibition (Plasmodium berghei): 23.24%

O=C(CCc1ccco1)NC1CCN(CC2(c3ccc(Cl)cc3)CCC2)CC1
inhibition (Plasmodium falciparum [1]): -33.1%
inhibition (Plasmodium falciparum [2]): 39.4%
inhibition (Plasmodium berghei): 1.599%

O=C(Nc1ccccc1O)c1ccc(Oc2cccc(C(=O)Nc3ccccc3O)c2)cc1
inhibition (Plasmodium falciparum [1]): -9.72%
inhibition (Plasmodium falciparum [2]): 15.9%
inhibition (Plasmodium berghei): -7.561%

CCN(CC)c1cc(C)c2cc(NC(=O)c3cccc(OC)c3)ccc2n1
inhibition (Plasmodium falciparum [1]): -22.1%
inhibition (Plasmodium falciparum [2]): -1.32%
inhibition (Plasmodium berghei): -7.501%

CN1C=C(c2ccc3ccccc3n2)C(c2c[nH]c3ccccc23)c2ccccc21 (centres undefined)
inhibition (Plasmodium falciparum [1]): -36.4%
inhibition (Plasmodium falciparum [2]): -6.39%
inhibition (Plasmodium berghei): -19.58%

CC(C)(C)c1ccc(C(=O)Nc2c3c(nn2-c2cccc(Cl)c2)CSC3)cc1
inhibition (Plasmodium falciparum [1]): -5.95%
inhibition (Plasmodium falciparum [2]): 25.7%
inhibition (Plasmodium berghei): -7.14%

CCN(CC)CCCNc1ccnc2cc3ccccc3cc12
inhibition (Plasmodium falciparum [1]): 20.2%
inhibition (Plasmodium falciparum [2]): 30.2%
inhibition (Plasmodium berghei): -14.18%

CCCCCn1c(=N)n(CC(O)COc2cccc(C)c2)c2ccccc21.Cl (centres undefined)
inhibition (Plasmodium falciparum [1]): -30.6%
inhibition (Plasmodium falciparum [2]): -6.7%
inhibition (Plasmodium berghei): 6.769%

Cc1ccc(Nc2nc(NCCO)c3ccccc3n2)cc1C
inhibition (Plasmodium falciparum [1]): -25.6%
inhibition (Plasmodium falciparum [2]): 12.7%
inhibition (Plasmodium berghei): -19.56%

CC(C)(C)c1ccc(C(=O)Nc2nc3ccccc3s2)cc1
inhibition (Plasmodium falciparum [1]): -4.04%
inhibition (Plasmodium falciparum [2]): 26.1%
inhibition (Plasmodium berghei): 18.69%

CCOc1ccc(-c2nc(NC(=O)c3cccc(S(C)(=O)=O)c3)sc2C)cc1
inhibition (Plasmodium falciparum [1]): -21%
inhibition (Plasmodium falciparum [2]): 0.81%
inhibition (Plasmodium berghei): -6.261%

COc1ccc(CCN2C(=O)c3[nH]nc(-c4cc(Cl)c(C)cc4O)c3C2c2ccccc2F)cc1 (centres undefined)
inhibition (Plasmodium falciparum [1]): -34.2%
inhibition (Plasmodium falciparum [2]): -17.3%
inhibition (Plasmodium berghei): -13.65%

COc1ccc2nc(C)cc(Nc3cccc(O)c3)c2c1.Cl
inhibition (Plasmodium falciparum [1]): -5.48%
inhibition (Plasmodium falciparum [2]): -12.1%
inhibition (Plasmodium berghei): -5.92%

COC(=O)c1ccc(C2C3=C(O)CC(c4ccc(F)cc4)CC3=Nc3ccccc3N2C(=O)c2ccccc2)cc1 (centres undefined)
inhibition (Plasmodium falciparum [1]): -31.4%
inhibition (Plasmodium falciparum [2]): -76.8%
inhibition (Plasmodium berghei): -3.179%

COc1ccc(NC(=O)C2c3ccccc3C(=O)N(CC(C)C)C2c2cccs2)cc1Cl (centres undefined)
inhibition (Plasmodium falciparum [1]): -2.16%
inhibition (Plasmodium falciparum [2]): 8.99%
inhibition (Plasmodium berghei): -15.31%

Cl.OC(CNCc1ccccc1)Cn1c2ccccc2c2ccccc21 (centres undefined)
inhibition (Plasmodium falciparum [1]): 11.4%
inhibition (Plasmodium falciparum [2]): -10.2%
inhibition (Plasmodium berghei): 3.967%

COc1ccccc1C(=O)ON=C(N)Cc1cccc2ccccc12
inhibition (Plasmodium falciparum [1]): 14.9%
inhibition (Plasmodium falciparum [2]): 30.9%
inhibition (Plasmodium berghei): -22.37%

CCOc1ccc2nc(C)cc(Nc3ccc(N(C)C)cc3)c2c1.Cl
inhibition (Plasmodium falciparum [1]): -42.3%
inhibition (Plasmodium falciparum [2]): -23.6%
inhibition (Plasmodium berghei): -13.58%

CCOC(=O)c1cnc2c(C)cccc2c1Nc1ccc(C(C)=O)cc1
inhibition (Plasmodium falciparum [1]): -9.63%
inhibition (Plasmodium falciparum [2]): 13%
inhibition (Plasmodium berghei): 1.277%

COc1ccc(C2c3ccc4ccccc4c3Oc3ncn(CCCn4ccnc4)c(=N)c32)cc1OC (centres undefined)
inhibition (Plasmodium falciparum [1]): -9.13%
inhibition (Plasmodium falciparum [2]): 17.5%
inhibition (Plasmodium berghei): 36.85%

Cc1ccc(C2CC(C(F)(F)F)n3nc(C(=O)N4CCN(C(c5ccccc5)c5ccccc5)CC4)cc3N2)cc1 (centres undefined)
inhibition (Plasmodium falciparum [1]): -8.56%
inhibition (Plasmodium falciparum [2]): 8.58%
inhibition (Plasmodium berghei): 12.55%

CCOC(=O)c1cnc2c(C)cc(C)cc2c1Nc1ccc(OC)c(OC)c1
inhibition (Plasmodium falciparum [1]): -14.2%
inhibition (Plasmodium falciparum [2]): 25.9%
inhibition (Plasmodium berghei): 1.422%

CCCCOC(=O)c1ccc(Nc2cc(C)nc3ccc(OC)cc23)cc1
inhibition (Plasmodium falciparum [1]): -6.56%
inhibition (Plasmodium falciparum [2]): -6.31%
inhibition (Plasmodium berghei): -4.495%

Br.Cc1ccc(C)c(-c2csc(Nc3ccc(C)c(C)c3)n2)c1
inhibition (Plasmodium falciparum [1]): -46.3%
inhibition (Plasmodium falciparum [2]): 20.6%
inhibition (Plasmodium berghei): -11.38%

c1ccc(-c2ccc(-c3nc4ccccc4[nH]3)cc2)cc1
inhibition (Plasmodium falciparum [1]): -7.69%
inhibition (Plasmodium falciparum [2]): 15.6%
inhibition (Plasmodium berghei): -1.667%

COc1ccc(-c2cc(=O)oc3c4c(ccc23)OCN(Cc2ccc(F)cc2)C4)cc1
inhibition (Plasmodium falciparum [1]): -14.6%
inhibition (Plasmodium falciparum [2]): -29.3%
inhibition (Plasmodium berghei): -11.79%

N=c1n(CCN2CCCCC2)c2ccccc2n1CC(=O)c1ccc(Cl)c(Cl)c1
inhibition (Plasmodium falciparum [1]): -16.3%
inhibition (Plasmodium falciparum [2]): -14.4%
inhibition (Plasmodium berghei): -13.93%

O=C(NC1CCN(Cc2ccccc2)CC1)c1cc(-c2cccnc2)nc2ccc(Cl)cc12
inhibition (Plasmodium falciparum [1]): -32.7%
inhibition (Plasmodium falciparum [2]): -6.01%
inhibition (Plasmodium berghei): -13.2%

COc1ccccc1N1CCN(C(CNS(=O)(=O)c2ccc(Cl)cc2)c2cccnc2)CC1 (centres undefined)
inhibition (Plasmodium falciparum [1]): -39.2%
inhibition (Plasmodium falciparum [2]): 3.66%
inhibition (Plasmodium berghei): -1.627%

O=C(Nc1ccc(Cl)c(Cl)c1)Nc1ccc(Cl)c(Cl)c1
inhibition (Plasmodium falciparum [1]): -21.6%
inhibition (Plasmodium falciparum [2]): -55.6%
inhibition (Plasmodium berghei): -17.89%

COc1ccc(C(=O)NC(c2ccc(Cl)cc2Cl)c2cc(Cl)c3cccnc3c2O)cc1 (centres undefined)
inhibition (Plasmodium falciparum [1]): -10.1%
inhibition (Plasmodium falciparum [2]): -11.1%
inhibition (Plasmodium berghei): 1.805%

O=C(Nc1ccc(F)c(Cl)c1)Nc1ccc(Cl)c(Cl)c1
inhibition (Plasmodium falciparum [1]): -12.2%
inhibition (Plasmodium falciparum [2]): 15.7%
inhibition (Plasmodium berghei): -10.47%

CCCc1cc(O)c2c3c(c(=O)oc2c1)CN(C)CC3
inhibition (Plasmodium falciparum [1]): -29.9%
inhibition (Plasmodium falciparum [2]): 2.76%
inhibition (Plasmodium berghei): -29.34%

CNCCCNc1ccnc2cc(Cl)ccc12
inhibition (Plasmodium falciparum [1]): -3.53%
inhibition (Plasmodium falciparum [2]): -17.2%
inhibition (Plasmodium berghei): 0.238%

Cc1cc(NC(=O)C2c3ccccc3C(=O)N(CC(C)C)C2c2cccs2)no1 (centres undefined)
inhibition (Plasmodium falciparum [1]): 40.3%
inhibition (Plasmodium falciparum [2]): 52.5%
inhibition (Plasmodium berghei): -16.54%

O=C(NCCCN1CCC(N2CCCCC2)CC1)C1=Cc2cc(Br)ccc2OC1
inhibition (Plasmodium falciparum [1]): 15%
inhibition (Plasmodium falciparum [2]): 8.14%
inhibition (Plasmodium berghei): -4.183%

O=C(Nc1ccc(-c2nc3cc4ccccc4cc3[nH]2)cc1)c1cccc(Br)c1
inhibition (Plasmodium falciparum [1]): -0.0992%
inhibition (Plasmodium falciparum [2]): 30.7%
inhibition (Plasmodium berghei): -21.87%

O=C(Nc1cccc(C2=NCCN2)c1)Nc1cccc(C2=NCCN2)c1 [IMIDOCARB]
inhibition (Plasmodium falciparum [1]): -30.2%
inhibition (Plasmodium falciparum [2]): -36.7%
inhibition (Plasmodium berghei): -13.35%

CCOc1cc2c(cc1OCC)C(c1cc(OC)c(O)cc1Cl)NCC2 (centres undefined)
inhibition (Plasmodium falciparum [1]): -6.96%
inhibition (Plasmodium falciparum [2]): 19.6%
inhibition (Plasmodium berghei): -21.67%

CCOc1c(Cl)cc(CNC(C)C(O)c2ccccc2)cc1OC (centres undefined)
inhibition (Plasmodium falciparum [1]): -16%
inhibition (Plasmodium falciparum [2]): 11.3%
inhibition (Plasmodium berghei): -12.71%

O=C(Nc1cccc(C(F)(F)F)c1)c1cc(Cl)ccc1O
inhibition (Plasmodium falciparum [1]): -6.94%
inhibition (Plasmodium falciparum [2]): 24.9%
inhibition (Plasmodium berghei): -2.67%

O=C(Nc1ccc(-c2nc3ccccc3[nH]2)cc1)c1ccc(Cl)c(Cl)c1
inhibition (Plasmodium falciparum [1]): -34.9%
inhibition (Plasmodium falciparum [2]): 4.23%
inhibition (Plasmodium berghei): -25.94%

CCCCCCc1cc2cc(-c3nc4ccccc4[nH]3)c(=Nc3ccccc3C)oc2cc1O
inhibition (Plasmodium falciparum [1]): 5.88%
inhibition (Plasmodium falciparum [2]): 9.8%
inhibition (Plasmodium berghei): 23.15%

CCOC(=O)C1=CN(C)C=C(C(=O)OCC)C1c1cc(Br)c(OCC)c(OC)c1
inhibition (Plasmodium falciparum [1]): -20.1%
inhibition (Plasmodium falciparum [2]): 22.3%
inhibition (Plasmodium berghei): -13.86%

COc1ccc(N2CCN(C(CNC(=O)C3CCCCC3)c3ccc4c(c3)OCO4)CC2)cc1 (centres undefined)
inhibition (Plasmodium falciparum [1]): -22.9%
inhibition (Plasmodium falciparum [2]): 29.7%
inhibition (Plasmodium berghei): -5.593%

O=C(Nc1ccsc1C(=O)NC1CCCCC1)c1ccc(F)cc1
inhibition (Plasmodium falciparum [1]): -14.2%
inhibition (Plasmodium falciparum [2]): 0.722%
inhibition (Plasmodium berghei): -7.294%

CN(C)c1ccc(N=Cc2ccc(N3CCOCC3)cc2)cc1
inhibition (Plasmodium falciparum [1]): -21.3%
inhibition (Plasmodium falciparum [2]): 34.2%
inhibition (Plasmodium berghei): 4.978%

Cc1sc2ncnc(Sc3nc4ccccc4[nH]3)c2c1C
inhibition (Plasmodium falciparum [1]): -10.9%
inhibition (Plasmodium falciparum [2]): 30.8%
inhibition (Plasmodium berghei): 65.53%

CCC(=O)Nc1nnc(Cc2ccc(OC)c(OC)c2)s1
inhibition (Plasmodium falciparum [1]): -4.58%
inhibition (Plasmodium falciparum [2]): 19.9%
inhibition (Plasmodium berghei): -4.332%

CCOc1ccc(Nc2c3ccccc3nc3ccccc23)cc1.Cl
inhibition (Plasmodium falciparum [1]): -9.14%
inhibition (Plasmodium falciparum [2]): 21.7%
inhibition (Plasmodium berghei): 63.73%

COc1ccc(OC)c(C2C3=C(CC(C)(C)CC3=O)N(c3ccc(Cl)c(Cl)c3)C3=C2C(=O)CC(C)(C)C3)c1
inhibition (Plasmodium falciparum [1]): -10.6%
inhibition (Plasmodium falciparum [2]): -60%
inhibition (Plasmodium berghei): -8.364%

C[n+]1c2ccccc2nc2ccc(NCCO)cc21
inhibition (Plasmodium falciparum [1]): -21.5%
inhibition (Plasmodium falciparum [2]): 33.8%
inhibition (Plasmodium berghei): 4.233%

CC(NCc1ccccc1)c1cc(Cl)ccc1O (centres undefined)
inhibition (Plasmodium falciparum [1]): -17.3%
inhibition (Plasmodium falciparum [2]): -5.35%
inhibition (Plasmodium berghei): -6.231%

Cc1[nH]c(-c2ccc(F)cc2)cc1C(=O)NC1CCN(Cc2ccccc2)CC1
inhibition (Plasmodium falciparum [1]): -3.53%
inhibition (Plasmodium falciparum [2]): 7.06%
inhibition (Plasmodium berghei): -7.189%

COc1ccc(Nc2cc(C)nc(NCc3ccccc3)n2)cc1
inhibition (Plasmodium falciparum [1]): -30.5%
inhibition (Plasmodium falciparum [2]): -9.51%
inhibition (Plasmodium berghei): -20.03%

O=C(NC1CCN(Cc2ccccc2)CC1)c1cc(-c2ccncc2)nc2ccc(Cl)cc12
inhibition (Plasmodium falciparum [1]): -10.1%
inhibition (Plasmodium falciparum [2]): -6.34%
inhibition (Plasmodium berghei): -9.022%

Brc1ccc(Nc2nc3ccccc3nc2Nc2ccc(Br)cc2)cc1
inhibition (Plasmodium falciparum [1]): -0.532%
inhibition (Plasmodium falciparum [2]): 18.1%
inhibition (Plasmodium berghei): -6.195%

CN(C)CCCNCc1ccc(-c2ccc(F)c(Cl)c2)o1.Cl
inhibition (Plasmodium falciparum [1]): 38.4%
inhibition (Plasmodium falciparum [2]): 51.9%
inhibition (Plasmodium berghei): -12.37%

CN1CCN(c2ccc(Nc3c4ccccc4nc4ccccc34)cc2)CC1
inhibition (Plasmodium falciparum [1]): -3.1%
inhibition (Plasmodium falciparum [2]): 56.4%
inhibition (Plasmodium berghei): 3.384%

O=c1c2c([nH]c3ccccc13)CCCC2
inhibition (Plasmodium falciparum [1]): -24.5%
inhibition (Plasmodium falciparum [2]): 51%
inhibition (Plasmodium berghei): 6.827%

O=C(CSc1ccc2nnc(-c3cccc(F)c3)n2n1)Nc1ccc2c(c1)OCO2
inhibition (Plasmodium falciparum [1]): -24.8%
inhibition (Plasmodium falciparum [2]): -1.24%
inhibition (Plasmodium berghei): -8.438%

Oc1ccc(-c2nc(-c3ccc4oc5ccc(-c6[nH]c(-c7ccc(O)cc7)nc6-c6ccccc6)cc5c4c3)c(-c3ccccc3)[nH]2)cc1
inhibition (Plasmodium falciparum [1]): -4.38%
inhibition (Plasmodium falciparum [2]): 3.81%
inhibition (Plasmodium berghei): -6.694%
